The text below walks through data of patent US5482923A, “Heparin neutralization with platelet factor 4 fragments” (Repligen Corporation, priority 1993, dated 1996).

“Also recorded” adds a separate entry of the source.

One data set relates to thrombin. Put plainly: Prevention of heparin inhibition of thrombin, conditions similar to the Factor Xa experiments. It is filed as biochemical. The settings on record: for ability to prevent heparin inhibition of thrombin: in vitro; for prevention of heparin inhibition of thrombin: 1 μM. The source says: (§1) The lysine rich region of PF4 (residues 61-66) is also the domain associated with the binding of heparin by PF4. Heparin is known to play a role in modulating anglogenesis, which can also be affected by protamine, another well characterized heparin-binding protein. To assess the ability of PF4-based synthetic peptides to bind heparin, we assayed the activity of coagulation-cascade enzymes which are inhibited by heparin. The Factor Xa assay used here has previously been described in Denton et al., Biochem. J., 209:455-460 (1983).
In experiments carried out under conditions similar to the Factor Xa experiments, thrombin was inhibited 99% by 0.25 units of heparin.

Another data set deals with Factor Xa. Nature of the data set: Factor Xa assay: prevention of heparin inhibition of Factor Xa. It is filed as biochemical. The settings on record: for ability to prevent heparin inhibition of Factor Xa: in vitro; for restoration of Factor Xa activity: low concentrations.
From the text: as §1
PF4 isolated from platelets and recombinant E. coli cells were compared for their abilities to prevent heparin inhibition of Factor Xa (essential for the production of thrombin) in vitro.
The abilities of protamine and rPF4 to prevent heparin-inhibition of the coagulation enzyme Factor Xa were compared. The details of the assay are described by Denton et al, 1983, Biochem. J. 209:455. In the Factor Xa assay, 0.5 units of heparin inhibited enzymatic activity almost 90%.
Similar studies and results may be obtained using certain fragments of PF4 or rPF4 that include the heparin binding region, residues 61-66.

A further data set has as its system normal human plasma. Put plainly: Neutralization of heparin in human plasma (APTT). The settings on record: 1 unit/ml of heparin; for restoring the APTT to its heparin-free level: added during the incubation before activated thromboplastin. The source says: Neutralization of heparin in human plasma was also examined. The activated partial thromboplastin time (APTT) of normal human plasma was increased from its base level of approximately 30 seconds to 195 seconds by the addition of 1 unit/ml of heparin.

Data set [1] has as its system Sprague Dawley rats. Put plainly: In vivo heparin neutralization in rats (APTT). The note with it: for APTT after neutralizing agent: heparin 1 unit/g at t=0, agent at t=2 min, protamine sulfate 1 ug/g, PF4 7.5 ug/g, read at t=10 min. Also noted: species or system rat. How it is done:
(§2) In Vivo experiments were performed on rats to compare the heparin neutralizing activity of protamine and PF4 and to investigate the effect of PF4 on platelet and white blood cell count.
(§3) Sprague Dawley rats (225 g) were anesthetized with pentobarbital, the trachea was intubated, and the right femoral vein and carotid artery were cannulated. The intravenous infusion of heparin was followed by infusion of either protamine or rPF4. Arterial blood samples were taken prior to and immediately after heparin infusion and at several time points following the infusion of the neutralizing agent. Controls were conducted with Ringer's solution in place of heparin and the experimental agents. Samples were used for the following determinations: clotting time, platelet count, and white blood cell count.
(§4) Referring to FIGS. 1 and 2, data are shown from a typical experiment comparing the platelet count, white blood cell count and the APTT in rats when injected with heparin followed by protamine sulfate (FIG. 1) and when injected with heparin followed by rPF4 (FIG. 2). In these Figs., heparin was injected at t=0 and either protamine sulfate or rPF4 injected two minutes thereafter (t=2 minutes). The dosages used were: heparin 1 unit/g animal wt.; protamine sulfate 1 ug/g animal wt.; and PF4 7.5 ug/g animal wt.
Referring now to FIGS. 3 to 5, statistical bar graph data are shown comparing APTT, platelet count, (PC) and white blood cell (WBC) count in rats injected with a control solution, Ringers solution (FIG. 3), injected with heparin followed by protamine sulfate (FIG. 4) and injected with heparin followed by rPF4 (FIG. 5). […]
Samples A were taken before injection; samples B, 2 min after heparin injection; samples C, 10 min after heparin and 8 min after protamine sulfate injection; and samples D, 18 min after heparin injection. Data represent mean values and S.E.M. from experiments except that white blood cells and platelets were counted only in 3 samples taken at 2 and at 18 min after heparin injection. […]

Data set [2] concerns Sprague Dawley rats. Put plainly: In vivo effect on platelet count, white blood cell count and hematocrit in heparinized rats. Also noted: species or system rat. The settings on record: for platelet count, % of initial: after heparin followed by neutralizing agent, FIGS. 4 and 5; for hematocrit levels: conditions as for FIGS. 1 and 2; for change of platelet and white blood cell counts: heparin 100 units/100 g followed by protamine sulfate 100 μg/100 g or rPF4 7.5 μg/g; for white blood cell count / platelet count: t=10 minutes, 8 min after agent, protamine sulfate 1 ug/g, PF4 7.5 ug/g; for white blood cell count: protamine sulfate group over 5 at t=0; for platelet count: t=0: protamine sulfate over 800, rPF4 700. How it is done:
as §2, §3, §4
Experiments were also conducted to investigate hematocrit levels under conditions as described with respect to FIGS. 1 and 2. No change in hematocrit levels were observed when either PF4 or protamine were used for heparin neutralization.
Referring now to FIGS. 3 to 5, statistical bar graph data are shown comparing APTT, platelet count, (PC) and white blood cell (WBC) count in rats injected with a control solution, Ringers solution (FIG. 3), injected with heparin followed by protamine sulfate (FIG. 4) and injected with heparin followed by rPF4 (FIG. 5). The data included control rats, five rats injected with heparin followed by protamine sulfate and two rats injected with heparin followed by rPF4.
Samples A were taken before injection; samples B, 2 min after heparin injection; samples C, 10 min after heparin and 8 min after protamine sulfate injection; and samples D, 18 min after heparin injection. Data represent mean values and S.E.M. from experiments except that white blood cells and platelets were counted only in 3 samples taken at 2 and at 18 min after heparin injection. […] The decrease was statistically significant (p<0.01) as compared to samples obtained before heparin injection.
Data represent mean values and S.E.M. from 2 experiments for samples taken at times A-D as indicated in the discussion above with respect to FIG. 4.

Data set [3] deals with Sprague Dawley rats. The data set is described as above. Details: species or system rat. The settings on record: low doses of rPF4 (150 μg/100g); three experiments.

As to “C-13: C-13 peptide of PF4, a PF4-based synthetic peptide (PLYKKIIKKLLES; UniProt P02776 89-101, looked up, fragment)”, the “ability to prevent heparin inhibition of thrombin” value with thrombin is “unable to prevent the inhibition of thrombin even at concentrations ten times that of an effective level of rPF4”.

Turning to “C-41: The 41 amino acid C-terminal peptide of PF4 (IKAGPHCPTAQLIATLKNGRKICLDLQAPLYKKIIKKLLES; UniProt P02776 61-101, looked up, fragment)”, the “ability to prevent heparin inhibition of Factor Xa” value in the data set with Factor Xa is “prevented heparin inhibition less effectively; also recorded: demonstrated the ability to neutralize heparin in vitro”. Moreover, the “ability to prevent heparin inhibition of thrombin” value in the data set with thrombin is recorded as “prevented heparin inhibition less effectively”.

As for “rPF4: Recombinant native sequence human platelet factor 4, 70 residues, produced in E. coli as a fusion protein and cleaved with CNBr”, the “preventing Factor Xa inhibition, compared with protamine” value in the data set on Factor Xa (concentrations greater than 1 μM, 0.5 units of heparin) was “clearly more effective in preventing Factor Xa inhibition”. The “ability to prevent heparin inhibition of Factor Xa” value in the data set with Factor Xa is “able to prevent the heparin inhibition of thrombin and Factor Xa at approximately equimolar concentrations”. Moreover, the “restoration of Factor Xa activity” value in the data set on Factor Xa (0.5 units of heparin) is reported as “partially restored Factor Xa activity”. In addition, in the data set with thrombin (0.25 units of heparin), the “prevention of heparin inhibition of thrombin” value is “completely prevented heparin inhibition” and the “molar dose responses, rPF4 compared with protamine” value is on record as “no significant difference in their molar dose responses”. For the same substance, the “ability to prevent heparin inhibition of thrombin” value in the data set on thrombin is “able to prevent the heparin inhibition of thrombin and Factor Xa at approximately equimolar concentrations”. Besides, the “restoring the APTT to its heparin-free level” value in the data set on normal human plasma was “equally effective in restoring the APTT to its heparin-free level”. Moreover, the “APTT after neutralizing agent” value with Sprague Dawley rats [1] is on record as “restoration of normal APTT levels”. For the same substance, in the data set on Sprague Dawley rats [1] (low doses of rPF4 (150 μg/100g), three experiments), the “neutralization of the anticoagulant effect of heparin” value is recorded as “partially neutralized”. Moreover, in the data set with Sprague Dawley rats [2], the “platelet count, % of initial” value is 89±4.9%; the hematocrit levels entry is “No change”; the “change of platelet and white blood cell counts” value was “did not lead to the extensive depletion of platelet and white blood cells; also recorded: did not produce a statistical decrease in platelet and white blood count”; the “white blood cell count” value is “about 4 ×10^3 /μl”. For the same substance, the platelet count entry with Sprague Dawley rats [2] is reported as “about 500 ×10^3 /μl”. In addition, in the data set with Sprague Dawley rats [3], the “effect on platelets and white blood cells” value is “no effect on platelets and white blood cells”.

Take protamine: the “ability to prevent heparin inhibition of Factor Xa” value in the data set with Factor Xa is “able to prevent the heparin inhibition of thrombin and Factor Xa at approximately equimolar concentrations”. Moreover, in the data set on Factor Xa (0.5 units of heparin), the “restoration of Factor Xa activity” value is recorded as “partially restored Factor Xa activity”. Besides, in the data set on thrombin (0.25 units of heparin), the “prevention of heparin inhibition of thrombin” value is listed as “completely prevented heparin inhibition” and the “molar dose responses, rPF4 compared with protamine” value is on record as “no significant difference in their molar dose responses”. For the same substance, in the data set with thrombin, the “ability to prevent heparin inhibition of thrombin” value was “able to prevent the heparin inhibition of thrombin and Factor Xa at approximately equimolar concentrations”. Moreover, in the data set on normal human plasma, the “restoring the APTT to its heparin-free level” value is “equally effective in restoring the APTT to its heparin-free level”. In the data set on Sprague Dawley rats [1], the “APTT after neutralizing agent” value is listed as “decrease in the APTT to approximately normal levels after about 10 minutes”. In the data set with Sprague Dawley rats [2], the “platelet count, % of initial” value was 48±12.2%; the hematocrit levels result is reported as “No change”; the “change of platelet and white blood cell counts” value was “significant decrease of white blood cell count and platelet count; also recorded: drop in platelet and white blood cell counts”; the “white blood cell count” value was “less than 3 ×10^3 /μl”. In addition, in the data set on Sprague Dawley rats [2], the platelet count entry is reported as “less than 500 ×10^3 /μl”. Besides, in the data set with Sprague Dawley rats [2] (after heparin followed by protamine sulfate, FIG. 4), the WBC count result is reported as “decreased”. In addition, the respiratory problems result in the data set on Sprague Dawley rats [2] (heparin 1 unit/g followed by protamine sulfate 1 ug/g) is recorded as “These rats also had respiratory problems”.

For heparin [reference compound], the “inhibition of Factor Xa enzymatic activity” value with Factor Xa (0.5 units of heparin) is recorded as ~90%. The same substance displayed an inhibition of thrombin in the data set with thrombin (0.25 units of heparin) of 99%. For the same substance, the “activated partial thromboplastin time (APTT)” value in the data set with normal human plasma (base level approximately 30 seconds) is 195 s.
